Experimental findings from PMC7675582, “Time-Dependent Fluorescence Spectroscopy to Quantify Complex Binding Interactions” (ACS Omega, 2020) are described below.

For orientation: Kd means the concentration at which binding is half-saturated. A higher Kd goes with weaker binding.

The test addresses T1, galectin-3 (Homo sapiens, UniProt P17931).
T1 construct: gene LGALS3; recombinant human galectin-3, GST-purified with the GST tag removed
The experiment in a line: intrinsic tryptophan fluorescence lifetime titration (direct waveform recording, excitation at […] nm), fit with n = […]. In kind it is binding.

T1 sequence (P17931 2-250): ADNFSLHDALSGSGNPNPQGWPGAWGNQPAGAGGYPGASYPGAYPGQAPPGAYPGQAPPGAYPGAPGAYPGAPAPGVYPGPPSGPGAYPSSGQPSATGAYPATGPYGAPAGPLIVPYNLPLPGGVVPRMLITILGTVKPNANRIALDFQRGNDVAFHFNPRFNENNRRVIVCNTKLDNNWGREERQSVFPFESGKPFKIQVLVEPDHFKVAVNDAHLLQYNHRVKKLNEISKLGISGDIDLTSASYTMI

On to `COC1O[C@H](CO)[C@@H](O[C@@H]2O[C@H](CO)[C@H](O)[C@H](O)[C@H]2O)[C@H](O)[C@H]1O` (stereo partly shown) [methyllactose], for which the Kd turned out to be 54 ± 10 µM.
